Bridge positions count the residues as written; N and C are the ends. Ends that are not written are not given here. Peptide text beside a SMILES is read from it. I, II: the chains in the order shown.
What was measured:
TAPL [1] = target: T1, TAPL (Homo sapiens, UniProt Q9NP78); test: NTP dependent peptide transport by TAPL; format: biochemical; conditions: 37 °C
T1 construct: Human coreTAPL (Q9NP78 UniProt, amino acid 143–766) fused C-terminally to mVenus; made in house; host or cells: Pichia pastoris SMD1168-His+
T1 sequence (Q9NP78 143-766): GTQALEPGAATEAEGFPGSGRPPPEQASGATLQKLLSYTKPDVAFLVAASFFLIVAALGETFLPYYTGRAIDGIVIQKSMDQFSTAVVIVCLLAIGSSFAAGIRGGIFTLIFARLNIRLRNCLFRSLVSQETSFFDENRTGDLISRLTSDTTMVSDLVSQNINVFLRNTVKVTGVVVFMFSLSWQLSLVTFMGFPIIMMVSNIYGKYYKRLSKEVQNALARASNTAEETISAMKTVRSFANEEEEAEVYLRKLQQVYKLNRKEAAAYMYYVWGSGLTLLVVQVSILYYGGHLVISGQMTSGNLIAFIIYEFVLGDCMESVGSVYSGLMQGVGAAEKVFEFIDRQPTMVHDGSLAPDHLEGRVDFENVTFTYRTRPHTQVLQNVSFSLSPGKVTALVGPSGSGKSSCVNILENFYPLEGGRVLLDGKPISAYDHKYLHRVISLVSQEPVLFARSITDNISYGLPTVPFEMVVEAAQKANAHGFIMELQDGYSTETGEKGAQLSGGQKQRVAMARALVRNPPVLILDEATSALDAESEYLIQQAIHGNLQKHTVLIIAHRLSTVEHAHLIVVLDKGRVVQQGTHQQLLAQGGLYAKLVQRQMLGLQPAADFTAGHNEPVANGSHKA
Description: Subsequently, we performed Michaelis-Menten kinetics of 9-mer peptide (100 µM) transport using increasing ATP and GTP concentrations. […] Additionally, we quantified the nucleotide hydrolysis kinetics of ATP and GTP in the presence and absence of the 9-mer peptide. […] Moreover, we assume a subtle difference in the cross-talk between the nucleotide binding domain and the transmembrane domain, which is caused by the type of purine base.
(A) NTP dependent peptide transport was performed with 9-mer^FL peptide (100 µM). (B) NTP hydrolysis was analyzed in the presence of 9-mer peptide (100 µM) by radioactive based assay. Experiments were performed in triplicates, error bars indicate SD.

Pdr5 = conditions: cited from earlier work
Source text: Both nucleotides show the same Km and kcat values in respect of NTP hydrolysis. […] NTP dependent transport was found also for other ABC transporters. […] The full-length ABC transport Pdr5 from yeast hydrolyzes GTP and even UTP, but ...

[2] = system: Nc1ncnc2c1ncn2[C@@H]1O[C@H](COP(=O)(O)OP(=O)(O)OP(=O)(O)O)[C@@H](O)[C@H]1O; test: purified protein, by the assay type; conditions: other: 68 °C, 10 min, 9-mer^FL peptide (30 µM), triplicates, SD
[3] = system: Nc1nc2c(ncn2[C@@H]2O[C@H](COP(=O)(O)OP(=O)(O)OP(=O)(O)O)[C@@H](O)[C@H]2O)c(=O)[nH]1; test: purified protein, by the assay type; conditions: other: 68 °C, 10 min, 9-mer^FL peptide (30 µM), triplicates, SD
TAPL [4] = target: T1, TAPL; test: Peptide transport into TAPL proteoliposomes; format: biochemical; conditions: 15 min, 37 °C
Description: (A) Proteoliposomes (0.5 mg/ml lipids) were incubated with 10 µM of 9-mer^FL peptide and 3 mM ATP, 3 mM ADP, without any nucleotide (−) or with 3 mM ATP in the presence of ortho-vanadate (Vi, 500 µM). […] […] Transport was performed in triplicates with error bars indicating SD.
CoreTAPL fused C-terminally to mVenus was produced in P. pastoris by large scale expression in a 7.5 liter Labfors4 reactor (Infors HT, Einsbach, Germany) by fed batch method and cell pellets were stored at −80 °C[14],[44]. Core[…] fused C-terminally to mVenus was produced in P. pastoris in Erlenmeyer flasks. TmrAB from T. thermophilus was expressed in Escherichia coli and cell pellets were stored at −80 °C[30]. CoreTAPL and TmrAB were purified and reconstituted (40:1 (wt/wt) lipid to protein) as described into unilamellar liposomes composed of E. coli polar lipids and DOPC (7:3 (wt/wt); Avanti Polar Lipids), which were ultrasonicated, five times frozen and thawed and extruded through a 400 nm polycarbonate filter (Avestin, Mannheim, Germany)[13],[14],[30]. Proteoliposomes were snap frozen in liquid nitrogen and stored at −80 °C. […] Concentration of coreTAPL and core[…] was determined by specific absorption of mVenus (ε515 = 45.950 M^−1cm^−1). For calculation of TmrAB concentration ε280 = 159.630 M^−1cm^−1 was applied.

TAPL [5] = target: T1, TAPL; test: NTP hydrolysis by TAPL, malachite green based assay; format: biochemical
Description: Kinetics were recorded under steady-state conditions in which peptide accumulation in proteoliposomes is far below saturation (Figs S2,S5).
ATP hydrolysis was determined by malachite green based assay in the absence or presence of 100 µM peptide (filled bar) or ortho-vanadate (500 µM, white bar) (A) or with increasing peptide concentrations (B). Hydrolysis rates of 16-mer and 18-mer peptide were fitted with equation 6. IC50 values, Hill coefficients and kcat are depicted in Table 1. […] All experiments were performed in triplicates, error bars indicate SD.
The reaction was started by the addition of NTP. Background and autohydrolysis were determined with 500 µM ortho-vanadate or in the absence of protein, respectively. Hydrolysis was stopped by the addition of 20 mM H2SO4, supplemented with malachite green solution (3 mM malachite green, 0.2% (v/v) Tween 20, 1.5% (w/v) ammoniummolybdate) and absorption was detected after 10 min incubation at room temperature at 620 nm using a microplate reader (CLARIOstar, BMG LABTECH). IC50 values for peptides were determined by6 v=vmin+vmax−vmin/1+10^(LOGIC50−[I])⋅n where v represents the peptide inhibitor [I] dependent hydrolysis rate, vmax the maximal hydrolysis rate in the absence of peptide, vmin the minimal hydrolysis rate at saturating peptide concentrations and n the Hill slope. IC50 represents the half maximal inhibitory peptide concentration.

Nc1ncnc2c1ncn2[C@@H]1O[C@H](COP(=O)(O)OP(=O)(O)OP(=O)(O)O)[C@@H](O)[C@H]1O [ATP]
fold turnover number of peptide transport, ATP over GTP (TAPL [1]; ATP vs GTP, 9-mer peptide (100 µM)): 6 fold | nucleotide hydrolysis by Pdr5 (in words) (Pdr5; GTP, UTP, ATP): highest efficiency

TmrAB (Thermus thermophilus HB27)
Km ([2]; radioactive assay): 661 ± 176 µM | kcat ([2]; radioactive assay): 2.25 ± 0.217 s⁻¹ | Km ([2]; pH 7.5): 782 ± 213 µM | kcat ([2]; pH 7.5): 0.105 ± 0.01 s⁻¹ | Km ([3]; radioactive assay): 617 ± 144 µM | kcat ([3]; radioactive assay): 2.47 ± 0.2 s⁻¹ | Km ([3]; pH 7.5): 391 ± 136 µM | kcat ([3]; pH 7.5): 0.0167 ± 0.00167 s⁻¹

Clc1ccccc1C(c1ccccc1)(c1ccccc1)n1ccnc1 [clotrimazole]
effect on Pdr5 ATPase activity (in words) (Pdr5; ATP hydrolysis): inhibited | effect on Pdr5 GTP and UTP hydrolysis (in words) (Pdr5; GTP and UTP hydrolysis): not affected

RRYC^FluoresceinKSTEL [9-mer^FL, fluorescein labeled 9-mer peptide]
Km (TAPL [4]; read-out: Km(Pep) of 9-mer transport with GTP, 3 mM GTP, proteoliposomes, triplicates, SD): 4.4 ± 0.8 µM

CC(C)C[C@H](NC(=O)[C@H](CCC(=O)O)NC(=O)[C@@H](NC(=O)[C@H](CO)NC(=O)[C@H](CCCCNC(=O)[C@H](CCCCN)NC(=O)[C@H](CCCCN)NC(=O)[C@H](CCCCN)NC(=O)[C@H](CCCCN)NC(=O)[C@H](CCCCN)NC(=O)[C@H](CCCCN)NC(=O)[C@H](CCCCN)NC(=O)[C@@H](N)CCCCN)NC(=O)[C@H](CS)NC(=O)[C@H](Cc1ccc(O)cc1)NC(=O)[C@@H](N)CCCNC(=N)N)[C@@H](C)O)C(=O)O [16-mer, RYCK(K8)STEL] (I: H-KKKKKKKK / II: H-RYCKSTEL-OH; amide I:C-II:4; N-terminus assumed)
kcat(Pep) turnover number of peptide transport (TAPL [4]; proteoliposomes, 3 mM ATP, pH 7.5, fluorescein labeled (FL) peptides used, triplicates, SD, listed as 16-mer^FL): 0.00417 s⁻¹ | ATP per translocated peptide (TAPL [5]; ATP hydrolysis at saturating peptide divided by peptide transport turnover): 100 ATP per translocated peptide | Hill slope of ATP hydrolysis inhibition (TAPL [5]; proteoliposomes, 3 mM ATP, 15 min, 37 °C, malachite green, unlabeled peptides): −2.09 ± 0.73 | kcat(ATP) rate constant of ATP hydrolysis (TAPL [5]; under saturating peptide concentration, 3 mM ATP, 15 min, 37 °C, malachite green, unlabeled peptides): 0.367 ± 0.067 s⁻¹

[O]=[V]([O-])([O-])[O-] [ortho-vanadate]
inhibition of ATP dependent peptide translocation (in words) (TAPL [4]; ortho-vanadate 500 µM, 3 mM ATP, 10 µM 9-mer^FL): specifically inhibited | inhibition of GTP dependent peptide transport (in words) (TAPL [1]; ortho-vanadate 500 µM, 3 mM GTP, 10 µM 9-mer^FL, 15 min): inhibited | effect on basal ATP hydrolysis (in words) (TAPL [5]; 3 mM ATP, 15 min, 37 °C, malachite green, peptide up to 100 µM or ortho-vanadate 500 µM): blocked | effect on GTP hydrolysis (in words) (TAPL [5]; 3 mM GTP, 15 min, 37 °C, malachite green, 9-mer peptide 100 µM or ortho-vanadate 500 µM): inhibited

RRYQKSTELRRYQKSTEL [18-mer]
reduction of ATP hydrolysis (TAPL [5]; 100 µM peptide, 3 mM ATP, 15 min, 37 °C, vs absence of peptide): 50%

From publication PMC6695453, “Peptide translocation by the lysosomal ABC transporter TAPL is regulated by coupling efficiency and activation energy” (Scientific Reports, 2019)
